Results as given in patent publication US20240270809A1, “ORAL GLP RECEPTOR AGONISTS” (priority 2020, published 2024).
Positions of bridges follow the written chain, without caps; N, C: chain ends. Non-standard residues stand in square brackets, D forms with d. Residues, ends and D or L forms follow the SMILES beside them. *: point of attachment. Malonyl(2,2-Me2,histaminyl) = CC(C)(C(=O)NCCc1cnc[nH]1)C(=O)*; Ala(1H-tetrazol-5-yl) = N[C@@H](Cc1nnn[nH]1)C(=O)O; αMeL = CC(C)C[C@](C)(N)C(=O)O; Nle = CCCC[C@H](N)C(=O)O; Aib = CC(C)(N)C(=O)O

Legend:
human GLP2 receptor = target: T1, human GLP2 receptor (Homo sapiens, UniProt O95838); assay: cAMP accumulation assay, functional agonism of human GLP2 receptor; assay type: cell-based; conditions: HEK cells infected with human GLP2 receptor BacMam virus, HTRF cAMP; for Emax: HEK293, read-out: Human GLP-2R agonist cAMP Emax; for EC50: read-out: Human GLP-2R agonist cAMP pEC50 (converted)
T1 construct: expressed in transfected cells; host or cells: HEK cells, BacMam virus transduction
T1 sequence (O95838 1-553): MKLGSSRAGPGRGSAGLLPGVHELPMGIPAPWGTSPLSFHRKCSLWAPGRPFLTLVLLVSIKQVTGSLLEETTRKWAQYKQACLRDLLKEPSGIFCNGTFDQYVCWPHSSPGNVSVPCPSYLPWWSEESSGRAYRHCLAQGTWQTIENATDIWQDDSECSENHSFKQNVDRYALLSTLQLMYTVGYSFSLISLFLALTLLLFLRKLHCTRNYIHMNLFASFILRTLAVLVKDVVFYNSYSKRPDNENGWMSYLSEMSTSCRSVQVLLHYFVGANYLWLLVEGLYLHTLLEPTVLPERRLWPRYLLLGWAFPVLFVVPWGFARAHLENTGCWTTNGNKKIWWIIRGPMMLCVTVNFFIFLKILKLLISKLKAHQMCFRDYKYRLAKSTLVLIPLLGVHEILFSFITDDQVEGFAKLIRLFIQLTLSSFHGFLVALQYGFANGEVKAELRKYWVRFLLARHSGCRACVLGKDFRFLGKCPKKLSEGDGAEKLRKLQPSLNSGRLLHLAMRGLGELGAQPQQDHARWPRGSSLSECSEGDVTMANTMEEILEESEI
Method in brief: (§1)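 HTRF cAMP read-out: HEK cells expressing GLP1 or GLP2 receptor via 24 h BacMam infection, frozen before use; agonist exposure 45 min, 37° C, HBSS + 0.5 mM IBMX; stopped with detection reagents in lysis buffer.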

human GLP1 receptor = target: T2, human GLP1 receptor (Homo sapiens, UniProt P43220); assay: cAMP accumulation assay, functional agonism of human GLP1 receptor; assay type: cell-based; conditions: HEK cells infected with human GLP1 receptor BacMam virus, HTRF cAMP; for Emax: HEK293, read-out: Human GLP-1R agonist cAMP Emax; for EC50: read-out: Human GLP-1R agonist cAMP pEC50 (converted)
T2 construct: expressed in transfected cells; host or cells: HEK cells, BacMam virus transduction
Method in brief: as §1

[1] = Stability of peptides in Fasted-State Simulated Intestinal Fluid (FaSSIF); assay type: in vitro ADME; conditions: FaSSIF with 10 mg/ml pancreatin, 37° C.; for remaining at 0.5 h: t=30 mins, pH 6.5, 10 mg/ml pancreatin; for remaining at 0.25 h: FaSSIF pH 6.5 with 10 mg/ml pancreatin, t = 15 mins
Method: Stability of peptides was tested in Fasted-State Simulated Intestinal Fluid (FaSSIF) prepared according to manufacturer's protocol (Biorelevant, art.no. FFF01, pH 6.5). […] FaSSIF was pre-incubated for 15 min at 37° C. and spiked with test and reference item working solutions. Experiments were conducted in duplicate in a non-serial manner. The total incubation volume per replicate was 150 μl. Sampling time points for test items were 0, 0.5, 2, 5, 10, 15 and 30 min. All samples and calibration standards (prepared in FaSSIF) were precipitated by addition of 300 μl precipitant (ACN / 2% acetic acid / 0.2% HFBA, (precipitation reagent, PR)) containing internal standard (ISTD) to 150 μl sample. After incubation for 1 h at room temperature all samples were centrifuged for 10 min at 2,200×g (room temperature).

T2 sequence (P43220 24-463): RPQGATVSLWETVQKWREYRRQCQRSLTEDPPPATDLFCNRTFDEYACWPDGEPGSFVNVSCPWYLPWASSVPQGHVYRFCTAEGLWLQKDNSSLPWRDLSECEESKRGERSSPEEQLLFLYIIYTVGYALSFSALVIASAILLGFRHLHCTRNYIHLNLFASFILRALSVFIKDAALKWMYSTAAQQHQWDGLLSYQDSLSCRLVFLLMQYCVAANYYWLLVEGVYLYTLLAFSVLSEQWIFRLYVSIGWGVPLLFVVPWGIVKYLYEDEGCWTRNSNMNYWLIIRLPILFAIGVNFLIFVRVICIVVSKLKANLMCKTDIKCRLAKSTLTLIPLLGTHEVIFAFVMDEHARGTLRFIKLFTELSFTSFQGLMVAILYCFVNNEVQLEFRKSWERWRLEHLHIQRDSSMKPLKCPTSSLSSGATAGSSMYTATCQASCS

SMILES	Emax (human GLP2 receptor) [%]	EC50 (human GLP2 receptor) [nM]	Emax (human GLP1 receptor) [%]	EC50 (human GLP1 receptor) [nM]	remaining at 0.5 h [1] [%]	remaining at 0.25 h [1] [%]
CCCC[C@@H]1NC(=O)[C@H](CCC(=O)O)NC(=O)[C@@H](NC(=O)[C@H](CO)NC(=O)[C@H](Cc2ccccc2)NC(=O)[C@H](CO)NC(=O)CNC(=O)[C@H](Cc2nn[nH]n2)NC(=O)C(C)(C)C(=O)NCCc2c[nH]cn2)CCCCNC(=O)C[C@@H](C(=O)N[C@@](C)(CC(C)C)C(=O)N[C@@H](CC(C)C)C(=O)N[C@@H](CC(=O)O)C(=O)N[C@H]2CCC(=O)NCCCC[C@@H](C(=O)N[C@@H](CC(=O)O)C(=O)N[C@@H](Cc3ccccc3)C(=O)N[C@H](C(=O)N[C@@H](CC(N)=O)C(=O)N[C@@H](Cc3c[nH]c4ccccc34)C(=O)N[C@@H](CC(C)C)C(=O)N[C@H](C(=O)N[C@@H](CCC(N)=O)C(=O)N[C@H](C(=O)N[C@H]3CCC(=O)NCCCC[C@@H](C(N)=O)NC(=O)[C@H]([C@@H](C)O)NC(=O)[C@H]([C@@H](C)CC)NC3=O)[C@@H](C)O)[C@@H](C)CC)[C@@H](C)CC)NC(=O)[C@H](C)NC(=O)[C@H](C)NC(=O)[C@H](CCCCN)NC2=O)NC(=O)[C@@H](Cc2ccccc2)NC1=O [Example 11] ({Malonyl(2,2-Me2,histaminyl)}-[Ala(1H-tetrazol-5-yl)]GSFSKE[Nle][dF]D[αMeL]LDEKAAKDFINWLIQTEITK-NH2; lactam 6-10, 14-18, 28-31 (inferred); C-terminus assumed)	105	0.0794	95.3	0.251	22.3	
CCCC[C@H](NC(=O)[C@H](CCC(=O)O)NC(=O)[C@H](CC(=O)O)NC(=O)[C@H](CO)NC(=O)[C@H](Cc1ccccc1)NC(=O)[C@H](CO)NC(=O)CNC(=O)[C@H](Cc1nn[nH]n1)NC(=O)C(C)(C)C(=O)NCCc1c[nH]cn1)C(=O)N[C@H](Cc1ccccc1)C(=O)N[C@H](C(=O)N[C@H](C(=O)N[C@@H](CC(C)C)C(=O)N[C@@H](CC(=O)O)C(=O)N[C@H]1CCC(=O)NCCCC[C@@H](C(=O)N[C@@H](CC(=O)O)C(=O)N[C@@H](Cc2ccccc2)C(=O)N[C@H](C(=O)N[C@@H](CC(N)=O)C(=O)N[C@@H](Cc2c[nH]c3ccccc23)C(=O)N[C@@H](CC(C)C)C(=O)N[C@H](C(=O)N[C@@H](CCC(N)=O)C(=O)N[C@H](C(=O)N[C@H]2CCC(=O)NCCCC[C@@H](C(N)=O)NC(=O)[C@H]([C@@H](C)O)NC(=O)[C@H]([C@@H](C)CC)NC2=O)[C@@H](C)O)[C@@H](C)CC)[C@@H](C)CC)NC(=O)[C@H](C)NC(=O)[C@H](C)NC(=O)[C@H](CCCCN)NC1=O)[C@@H](C)CC)[C@@H](C)O [Example 107] ({Malonyl(2,2-Me2,histaminyl)}-[Ala(1H-tetrazol-5-yl)]GSFSDE[Nle][dF]TILDEKAAKDFINWLIQTEITK-NH2; lactam 14-18, 28-31)	101	0.02	96.9	0.02		7.4
CCCC[C@H](NC(=O)[C@H](CCC(=O)O)NC(=O)[C@H](CC(=O)O)NC(=O)[C@H](CO)NC(=O)[C@H](Cc1ccccc1)NC(=O)[C@H](CO)NC(=O)CNC(=O)[C@H](CC(=O)O)NC(=O)C(C)(C)NC(=O)[C@@H](N)Cc1c[nH]cn1)C(=O)N[C@H](Cc1ccccc1)C(=O)N[C@H](C(=O)N[C@H](C(=O)N[C@@H](CC(C)C)C(=O)N[C@@H](CC(=O)O)C(=O)N[C@@H](CC(C)C)C(=O)N[C@@H](CCCCN)C(=O)N[C@@H](C)C(=O)N[C@@H](C)C(=O)N[C@@H](CCCCN)C(=O)N[C@@H](CC(=O)O)C(=O)N[C@@H](Cc1ccccc1)C(=O)N[C@H](C(=O)N[C@@H](CC(N)=O)C(=O)N[C@@H](Cc1c[nH]c2ccccc12)C(=O)N[C@@H](CC(C)C)C(=O)N[C@H](C(=O)N[C@@H](CCC(N)=O)C(=O)N[C@H](C(=O)N[C@H]1CCC(=O)NCCCC[C@@H](C(N)=O)NC(=O)[C@H]([C@@H](C)O)NC(=O)[C@H]([C@@H](C)CC)NC1=O)[C@@H](C)O)[C@@H](C)CC)[C@@H](C)CC)[C@@H](C)CC)[C@@H](C)O [Example 90] (H-H[Aib]DGSFSDE[Nle][dF]TILDLKAAKDFINWLIQTEITK-NH2; lactam 30-33 (inferred); C-terminus assumed)	102	0.0251	100	7.94		22
CCCC[C@H](NC(=O)[C@H](CCC(=O)O)NC(=O)[C@@H]1CC(=O)NCCCC[C@H](NC(=O)[C@H](Cc2nn[nH]n2)NC(=O)C(C)(C)C(=O)NCCc2c[nH]cn2)C(=O)N[C@@H](CO)C(=O)N[C@@H](Cc2ccccc2)C(=O)N[C@@H](CO)C(=O)N1)C(=O)N[C@H](Cc1ccccc1)C(=O)N[C@H](C(=O)N[C@@](C)(CC(C)C)C(=O)N[C@@H](CC(C)C)C(=O)N[C@@H](CC(=O)O)C(=O)N[C@H]1CCC(=O)NCCCC[C@@H](C(=O)N[C@@H](CC(=O)O)C(=O)N[C@@H](Cc2ccccc2)C(=O)N[C@H](C(=O)N[C@H]2CCC(=O)NCCCC[C@@H](C(=O)N[C@H](C(=O)N[C@@H](CCCCN)C(N)=O)[C@@H](C)O)NC(=O)[C@H]([C@@H](C)CC)NC(=O)[C@H](CC(C)C)NC(=O)[C@H](Cc3c[nH]c4ccccc34)NC2=O)[C@@H](C)CC)NC(=O)[C@H](C)NC(=O)[C@H](C)NC(=O)[C@H](CCCCN)NC1=O)[C@@H](C)O [Example 17] ({Malonyl(2,2-Me2,histaminyl)}-[Ala(1H-tetrazol-5-yl)]KSFSDE[Nle][dF]T[αMeL]LDEKAAKDFIEWLIKTK-NH2; lactam 2-6, 14-18, 22-26; C-terminus assumed)	104	0.0398	96.3	0.158	68.7	
